Results: patent US11554048B2, “System and method for treating meibomian gland dysfunction” (The Schepens Eye Research Institute, Inc., priority 2018, dated 2023)

Tested on: iHMGEC
Assay: Terminal differentiation of iHMGECs under low oxygen combined with phospholipidosis-inducing drug
Assay type: cell-based, human
Conditions: low oxygen levels combined with drug exposure, 10 μg/ml
Excerpt: This hypoxic effect is associated with a significant rise in the number and size of lysosomes, as well as increased DNase II activity and decreased Lamp-1 expression. These latter changes are consistent with heightened terminal differentiation and holocrine secretion.

For CC[C@H]1OC(=O)[C@H](C)[C@@H](O[C@H]2C[C@@](C)(OC)[C@@H](O)[C@H](C)O2)[C@H](C)[C@@H](O[C@@H]2O[C@H](C)C[C@H](N(C)C)[C@H]2O)[C@](C)(O)C[C@@H](C)CN(C)[C@H](C)[C@@H](O)[C@]1(C)O [azithromycin], the “hypoxic influence on terminal differentiation” value was “further enhanced”.
